Literature values in US10952984B2, “All-trans retinoic acid injectant and application” (HIGHFIELD BIOPHARMACEUTICAL CORPORATION, priority 2016, dated 2021).
≈ marks a conversion by molar mass, not a printed value.

Legend:
[1] = not given; remark: listed apart in the source

- water solubility: 4.77 µg/mL (≈ 15.9 µM)
- solubility of the all-trans retinoic acid in the prior art (prior art): 10 µg/mL
- bioavailability ([1]; oral dosage forms, clinical studies): ≤ 30%
- plasma half-life ([1]; prior art): short
SMILES: CC1=C(/C=C/C(C)=C/C=C/C(C)=C/C(=O)O)C(C)(C)CCC1 [all-trans retinoic acid]
